{"source": "paper PMC10920779", "about": "“Targeting P2Y14R protects against necroptosis of intestinal epithelial cells through PKA/CREB/RIPK1 axis in ulcerative colitis” (Nature Communications, 2024)", "system": "apoptosis and pyroptosis of IECs", "test": "Apoptosis and pyroptosis markers in IECs of DSS-treated mice (TUNEL, cleaved caspase-3, Bcl-2, Bax, GSDMD-NT, caspase-1 p20)", "type": "in vivo, mouse", "set-up": "GSDMD / caspase-1 / caspase-3: scale not given here", "settings": "for BAX/BCL / GSDMD / caspase-1 / caspase-3: replicates", "description": "Tissues and cells were lysed using RIPA lysis buffer (Beyotime Biotechnology) containing protease and phosphatase inhibitor, homogenated, and centrifuged. The protein concentration was determined by BCA protein assay (Beyotime Biotechnology). Equal concentrations of proteins were separated in a 10% SDS-PAGE and transferred to PVDF membrane. The membrane was blocked using 5% milk in TBST, probed with primary antibody, RIPK1 (17519-1-AP, Proteintech, 1:1000), MLKL (GTX107538-100, GeneTex, 1:1000), RIPK3 (17563-1-AP, Proteintech, 1:1000), p-MLKL (EPR9514, Abcam, 1:1000), PKA (bs-0520R, Bioss, 1:1000), p-PKA (#9621, Cell signaling, 1:1000), CREB (AF6188, Affinity, 1:1000), p-CREB (AF3189, Affinity, 1:1000), P2Y14R (bs-12028R, Bioss, 1:1000), GSDMD (ab209845, Abcam, 1:1000), Caspase1 p20 (bs-10442R, Bioss, 1:1000), Bcl-2 (bs-0032R, Bioss, 1:1000), Bax (AF0120, Affinity, 1:1000), Caspase-3 p-17 (Cell Signaling Technology, #9664, 1:1000), β-actin (bs-0061R, Bioss, 1:1000), GAPDH (BS-2188R, Bioss, 1:1000) and corresponding HRP-conjugated antibodies Goat Anti-Rabbit IgG H&L Antibody (bioss, Bs-0295G, 1:8000) or Goat Anti-Mouse IgG H&L Antibody (bioss, Bs-0296G, 1:8000). Densitometry was quantified using ImageJ software.\nImmunofluorescence staining was performed using paraffin-embedded tissues as mentioned before. For immunofluorescence, the paraffin slides were deparaffinized, rehydrated, blocked and treated according to a standard protocol. The expression of intestinal barrier associated tight junction protein, P2Y14R and EpCAM was evaluated by probing the tissues with primary antibody against Claudin-1 (bioss, bs-10011R, 1:300), Occludin (bioss, DF6919, 1:300), ZO-1 (Affinity, AF5145, 1:300), EpCAM (AiFang, AF04654, 1:300), Caspase-3 p-17 (Cell Signaling Technology, #9664, 1:1000) and P2Y14R (Invitrogen, PAS-103202, 1:300) overnight at 4°C followed by 1 h incubation with the corresponding secondary antibody Goat Anti-Mouse IgG H&L (Alexa Fluor® 555) (ab150114, Abcam, 1:500) or Goat Anti-Rabbit IgG H&L (Alexa Fluor® 488) (ab150077, Abcam, 1:300). All slides were incubated with DAPI (S2110, Solarbio) for 10 min to show the location of the nucleus. Images were captured with a confocal microscope (LSM 800, Zeiss).\nTUNEL staining was performed using paraffin-embedded tissues as mentioned before. The staining was performed with apoptosis kit (11684817910, Roche) to detect apoptotic cells in colon sections according to the instructions of manufacturer. After the paraffin sections conventional dewaxing to water, performed the antigen recovery with protease K working solution at 37°C for 22 min. Then incubated the sections with permeabilize working solution at room temperature for 20 min. Next, take appropriate amount of TDT enzyme, dUTP and buffer in the tunel kit according to the number of slices and tissue size and mix at 1:5:50 ratio, and used to incubate the tissues at 37°C for 1 h. Finally, the DAPI dye (S2110, Solarbio) was used to stain nucleus at room temperature for 10 min. Images were captured with NanoZoomer S60 (C13210-01, Hamamatsu).", "note": "Several values for one entry are separate records, joined by “and”; a condition that tells them apart may be missing. Equal values may be shown once.", "data": [{"smiles": "Brc1ccc(NCc2nc3ccccc3o2)cc1", "note": "[HDL-16]", "values": [{"measurement": "BAX/BCL", "setting": "DSS+HDL-16-H (high dose)", "value": "7.829 and 4.146 and 3.473 and 3.902 and 4.249"}, {"measurement": "GSDMD", "setting": "DSS+HDL-16-H (high dose)", "value": "1.314 and 1.225 and 1.812 and 1.35 and 1.898"}, {"measurement": "caspase-1", "setting": "DSS+HDL-16-H (high dose)", "value": "2.375 and 1.892 and 1.815 and 1.586 and 3.381"}, {"measurement": "caspase-3", "setting": "DSS+HDL-16-H (high dose)", "value": "2.22 and 2.236 and 2.6476 and 2.354 and 2.345"}, {"measurement": "BAX/BCL", "setting": "DSS+HDL-16-L (low dose)", "value": "6.676 and 3.513 and 3.416 and 6.035 and 4.817"}, {"measurement": "GSDMD", "setting": "DSS+HDL-16-L (low dose)", "value": "1.693 and 1.518 and 1.46 and 1.354 and 1.839"}, {"measurement": "caspase-1", "setting": "DSS+HDL-16-L (low dose)", "value": "2.037 and 2.2873 and 0.9771 and 2.5083 and 2.278"}, {"measurement": "caspase-3", "setting": "DSS+HDL-16-L (low dose)", "value": "2.396 and 2.3353 and 3.098 and 2.578 and 2.264"}, {"measurement": "Apoptosis and pyroptosis of IECs", "setting": "DSS-induced inflammation, TUNEL and western blot", "value": "did not influence the apoptosis and pyroptosis"}]}]}
